The subject of one experiment is HCT116. Description: Cell cycle analysis (PI, flow cytometry). In kind it is cell-based, human. The settings on record: 0, 2 or 4 μM, 12 h, data not shown. The procedure:
Cell cycle analysis was performed as described previously (Pozarowski and Darzynkiewicz, [2004]). Briefly, a 6 well plate was used for the seeding of HCT116 at 1 × 10^6 cells/well. The next day, 15j and 15k (0, 2, or 4 μM) were added and incubated with the seeded cells. After 12 h, the cells were trypsinzed with 0.25% trypsin, 2.21 mM EDTA, 1X, washed, counted and resuspended in 0.5 ml of ice cold PBS. PI stain was added to each suspension for at least 15 min to stain the DNA. The cell cycle analysis and cell distribution for each phase was measured using a BD Accuri™ C6 flow cytometer (BD Biosciences, Becton-Dickinson, San Jose, CA, USA) and analyzed using FCS express 5 plus De Novo software (Glendale, CA, USA).
For orientation: In flow cytometry, cells or beads pass a laser one at a time.

A further experiment has as its system caspases 3 and 7. Description: IncuCyte caspase-3/7 real time apoptosis. In kind it is cell-based, human. As for the experimental part:
For real time quantification of apoptosis induction, the fluorescent Caspase 3/7 and Annexin V red reagents, with an excitation maximum of 500 and 593 nm and an emission maximum of 530 and 614 nm, respectively, were used. The HCT116 cells were seeded at a density of 1,000 cell/well and allowed to grow overnight. The next day, compound 15k at 0, 2, 4, and 8μM was prepared and added, directly followed by the caspase 3/7 reagent at final concentration of 5μM or annexin V red reagent in final dilution of 1: 200. The cells were then incubated in IncuCyte Zoom live cell imaging and pictures were taken every 2 h for up to 50 h and analyzed using the integrated software. The IncuCyte® Caspase-3/7 apoptosis assay reagent couples the activated caspase-3/7 recognition motif (DEVD) to NucView™ 488, a DNA intercalating dye to enable quantification of apoptosis over time. Caspase-3/7 assay reagent is non-perturbing to cell growth and morphology. When added to cell culture medium, this inert, non-fluorescent substrate crosses the cell membrane, where it is cleaved by activated caspase-3/7, resulting in the release of the DNA dye and green fluorescent staining of nuclear DNA.

The next experiment relates to CRL-1459. Description: MTT assay, normal cell line. In kind it is cell-based. Particulars: 72 h incubation, mean ± SD of three experiments. As for the experimental part:
The 3-(4,5-dimethylthiazol-2-yl)-2,5-diphenyltetrazolium bromide (MTT) assay was used to determine the sensitivity of the different CRC cells to the novel silybin derivatives (Hussein et al., [2017]; Manivannan et al., [2017]). The cells were seeded at a density of 4,000–5,000 cells/well in 96 well plates and incubated with serial dilutions of the compounds (0, 0.1, 0.3, 1, 3, 10, 30, and 100 μM). The MTT dye (4 mg/ml) was added after 72 h of incubation and incubated with the cells for an additional 4 h at 37°C. Following incubation, the media was discarded and the formazan crystals were dissolved by adding 100 μL of DMSO to each well. A DTX 880 multimode detector (Beckman Coulter Life, Indianapolis IN, USA) was used to determine the absorbance readings at a wavelength of 570 nm. The IC50 values were determined based on 3 separate experiments, with each experiment done in triplicate. The selectivity of the compounds was determined by comparing their cytotoxicity for CRC to normal epithelial cell lines (CHO, and CRL1459).

Experiment [1] concerns HCT116 cells. Description: Hoechst staining of nuclear condensation. It counts as cell-based, human. Particulars: 2 or 4 μM, overnight, vs vehicle. As for the experimental part:
Nuclear condensation was detected using Hoechst 33258 DNA dye. HCT116 cells were seeded at 1 × 10^5 cells/well in 6-well plates and incubated overnight at 37°C. The following day, cells were exposed to 15k or 15j (0, 2, and 4 μM) and further incubated overnight at 37°C. The cells were fixed and stained with Hoechst 33258 for at least 30 min. An EVOS digital microscope was used to detect the stained nucleus fluorescence at wavelengths of 460–490 nm.

Experiment [2] concerns HCT116 cells. Description: MitoTracker Red / Alexa Fluor 488 annexin V flow cytometry. It counts as cell-based, human. Particulars: overnight. The procedure:
The mitochondrial membrane potential and the induction of apoptosis were analyzed in HCT116 cells using the MitoTracker Red and Alexa Fluor 488 annexin V kits for flow cytometry as previously described (Karthikeyan et al., [2015]). Six well plates were used for seeding of cells, followed by incubation with 15j or 15k (0, 1, 2, and 4μM) for overnight. Subsequently, the cells were harvested, counted and 4 μl of a 10μM working solution of MitoTracker Red was added to each 1 ml cell suspension, followed by 30 min of incubation at 37°C with 5% CO2. The cells were resuspended in 100 μl of annexin binding buffer and 5 μl of Alexa Fluor 488 annexin V was added to the suspension and incubated for 15 min. Finally, 400 μl of annexin-binding buffer was added and the stained cells were detected by flow cytometry. The fluorescence emission at 530 and 585 nm was measured using a BD Accuri™ C6 flow cytometer and analyzed using FCS express 5 plus De Novo software.

The subject of experiment [3] is HCT116 cells. Description: CellTiter-Glo luminescent assay (ATP content). Particulars: Homo sapiens, HCT-116, data not shown, read-out: IC50, ATP depletion. It counts as cell-based. As for the experimental part: Subsequently, we conducted experiments to determine if compound 15k produced a time-dependent effect on cell death. […] The HCT116 cells had intense fluorescence over time compared to the cells incubated with vehicle, with a significant difference in the number of dead cells after 24 h of incubation with 2 μM of 15k. […] The cytotoxicity of 15k and 15j in HCT116 cells were further determined using a more homogeneous CellTiter-Glo® luminescent cell based assay that measures the ATP content in the metabolically active cells.
Background: ATP-based viability assays read luminescence as a measure of living cells.

Another experiment has as its system COLO 205 cell line. Description: Transwell migration assay. It counts as cell-based. The settings on record: 2 and 4 μM, data not shown. As for the experimental part:
The effect of compound 15k on the invasiveness of LOVO was tested using 24 trans-well inserts with an […]. The addition of the insert to the well forms two chambers (upper and lower), where the upper chamber was used to grow the cells on the porous membrane. The lower chamber was filled with 600 μl of cell-free DMEM medium. A 200 μl of cell suspension was added to each insert and allowed to attach for 1 h. The test compound was added in different concentrations and incubated with the cells for 24 h. […] Finally, the remaining migrated cells were fixed by methanol and dyed with 0.1% crystal violet dye and observed with an EVOS microscope. The number of migrated cells was counted and compared between the treated and control cells.
The development of cancer metastasis is dependent on the migration and invasive properties of cancerous cells (van Zijl et al., [2011]). The wound healing and transwell migration assays were used with LOVO cells, as a model for metastatic CRC as it is characterized by a high level of invasiveness (Fan et al., [2015]). The wound healing assay is a well-established method to detect and analyze cell migration potential (Liang et al., [2007]). […] The effect of compound 15k on the invasiveness of COLO 205 cell line was also measured using trans-well migration assay. […] 15j also reversed cell migration and metastasis at different concentrations.

Regarding `O=C(/C=C/c1cccc(OCc2ccccc2)c1)c1ccc(O)cc1` [Compound 15k], the “effect on the cell cycle” value in the experiment with HCT116 is “significant concentration-dependent increase in the number of cells in the G2 and S phases”. Moreover, the “incubation time to induce apoptosis (caspase 3/7)” value with caspases 3 and 7 (2 μM) is “≈ 24 h”; in the experiment with caspases 3 and 7 (4 and 8 μM), “≈ 10 h”. Besides, the half-inhibitory concentration (IC50) (as a rule, the point on the concentration scale where inhibition reaches its midpoint) worked out at 8.5 ± 0.7 µM with CRL-1459 and 0.76 µM with HCT116 cells [3]. The “nuclear condensation / fragmentation” value with HCT116 cells [1] was “significant increase in blue fluorescence, as well as highly condensed, fragmented nuclei chromatin”. Also, in the experiment with HCT116 cells [2] (2 μM, vehicle 2.83%), the “cells undergoing apoptosis, quadrant II (Q2)” value is 47%. In addition, in the experiment on HCT116 cells [2] (Homo sapiens, HCT-116, 2 μM, vehicle 90.66%, read-out: viable cells in quadrant I (Q1)), the viability at 2 µM turned out to be 35.8%. In the experiment on HCT116 cells [2] (Homo sapiens, HCT-116, 4 μM, vehicle 90.66%, read-out: viable cells in quadrant I (Q1)), the viability at 4 µM was 36%. Also, the trans-well migration result with COLO 205 cell line is given as “significantly inhibited the migration”.

The values are drawn from paper PMC5974752, “Bax/Tubulin/Epithelial-Mesenchymal Pathways Determine the Efficacy of Silybin Analog HM015k in Colorectal Cancer Cell Growth and Metastasis” (Frontiers in Pharmacology, 2018).
